{"source": "patent US8192962B2", "about": "“Processes for detecting toxic substances” (Daikin Industries, Ltd., priority 2001, dated 2012)", "tested_on": "Transport facilitation protein genes", "test": "DNA chip mRNA expression in yeast, transport facilitation protein genes (Table 5)", "type": "cell-based, Saccharomyces cerevisiae S288C", "outline": "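Untreated cultures served as reference for log-phase S288C yeast given a growth-inhibiting, non-lethal toxicant dose for 2 h at 25° C. in YPD. Gene expression was measured on a whole-genome DNA chip from Cy3/Cy5-labeled cDNA.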"}
{"smiles": "[Cl][Pb][Cl]", "note": "[(4), PbCl2]", "values": [{"measurement": "The level of expressed mRNA in the presence of chemical substance/The level of expressed mRNA in the absence of chemical substance", "setting": "yeast gene YGR260W", "value": 0.8}, {"measurement": "The level of expressed mRNA in the presence of chemical substance/The level of expressed mRNA in the absence of chemical substance", "setting": "yeast gene YGR281W", "value": 2.2}, {"measurement": "The level of expressed mRNA in the presence of chemical substance/The level of expressed mRNA in the absence of chemical substance", "setting": "yeast gene YHL035C", "value": 1.9}, {"measurement": "The level of expressed mRNA in the presence of chemical substance/The level of expressed mRNA in the absence of chemical substance", "setting": "yeast gene YHL040C", "value": 0.4}, {"measurement": "The level of expressed mRNA in the presence of chemical substance/The level of expressed mRNA in the absence of chemical substance", "setting": "yeast gene YHL047C", "value": 1.0}, {"measurement": "The level of expressed mRNA in the presence of chemical substance/The level of expressed mRNA in the absence of chemical substance", "setting": "yeast gene YHR026W", "value": 1.0}, {"measurement": "The level of expressed mRNA in the presence of chemical substance/The level of expressed mRNA in the absence of chemical substance", "setting": "yeast gene YHR092C", "value": 2.5}, {"measurement": "The level of expressed mRNA in the presence of chemical substance/The level of expressed mRNA in the absence of chemical substance", "setting": "yeast gene YHR094C", "value": 1.6}, {"measurement": "The level of expressed mRNA in the presence of chemical substance/The level of expressed mRNA in the absence of chemical substance", "setting": "yeast gene YHR175W", "value": 1.5}, {"measurement": "The level of expressed mRNA in the presence of chemical substance/The level of expressed mRNA in the absence of chemical substance", "setting": "yeast gene YIL006W", "value": 2.9}, {"measurement": "The level of expressed mRNA in the presence of chemical substance/The level of expressed mRNA in the absence of chemical substance", "setting": "yeast gene YIL022W", "value": 1.6}, {"measurement": "The level of expressed mRNA in the presence of chemical substance/The level of expressed mRNA in the absence of chemical substance", "setting": "yeast gene YIL056W", "value": 1.4}, {"measurement": "The level of expressed mRNA in the presence of chemical substance/The level of expressed mRNA in the absence of chemical substance", "setting": "yeast gene YIL088C", "value": 1.3}, {"measurement": "The level of expressed mRNA in the presence of chemical substance/The level of expressed mRNA in the absence of chemical substance", "setting": "yeast gene YJL034W", "value": 0.8}, {"measurement": "The level of expressed mRNA in the presence of chemical substance/The level of expressed mRNA in the absence of chemical substance", "setting": "yeast gene YJL212C", "value": 0.5}, {"measurement": "The level of expressed mRNA in the presence of chemical substance/The level of expressed mRNA in the absence of chemical substance", "setting": "yeast gene YJL219W", "value": 1.6}, {"measurement": "The level of expressed mRNA in the presence of chemical substance/The level of expressed mRNA in the absence of chemical substance", "setting": "yeast gene YJR077C", "value": 1.6}, {"measurement": "The level of expressed mRNA in the presence of chemical substance/The level of expressed mRNA in the absence of chemical substance", "setting": "yeast gene YJR106W", "value": 1.1}, {"measurement": "The level of expressed mRNA in the presence of chemical substance/The level of expressed mRNA in the absence of chemical substance", "setting": "yeast gene YJR121W", "value": 1.0}, {"measurement": "The level of expressed mRNA in the presence of chemical substance/The level of expressed mRNA in the absence of chemical substance", "setting": "yeast gene YKL016C", "value": 1.7}, {"measurement": "The level of expressed mRNA in the presence of chemical substance/The level of expressed mRNA in the absence of chemical substance", "setting": "yeast gene YKL146W", "value": 0.9}, {"measurement": "The level of expressed mRNA in the presence of chemical substance/The level of expressed mRNA in the absence of chemical substance", "setting": "yeast gene YKR039W", "value": 1.7}, {"measurement": "The level of expressed mRNA in the presence of chemical substance/The level of expressed mRNA in the absence of chemical substance", "setting": "yeast gene YKR067W", "value": 2.5}, {"measurement": "The level of expressed mRNA in the presence of chemical substance/The level of expressed mRNA in the absence of chemical substance", "setting": "yeast gene YLL028W", "value": 0.5}, {"measurement": "The level of expressed mRNA in the presence of chemical substance/The level of expressed mRNA in the absence of chemical substance", "setting": "yeast gene YLR081W", "value": 3.6}, {"measurement": "The level of expressed mRNA in the presence of chemical substance/The level of expressed mRNA in the absence of chemical substance", "setting": "yeast gene YLR295C", "value": 1.7}, {"measurement": "The level of expressed mRNA in the presence of chemical substance/The level of expressed mRNA in the absence of chemical substance", "setting": "yeast gene YLR348C", "value": 1.2}, {"measurement": "The level of expressed mRNA in the presence of chemical substance/The level of expressed mRNA in the absence of chemical substance", "setting": "yeast gene YLR378C", "value": 0.5}, {"measurement": "The level of expressed mRNA in the presence of chemical substance/The level of expressed mRNA in the absence of chemical substance", "setting": "yeast gene YMR011W", "value": 5.5}, {"measurement": "The level of expressed mRNA in the presence of chemical substance/The level of expressed mRNA in the absence of chemical substance", "setting": "yeast gene YMR162C", "value": 2.0}, {"measurement": "The level of expressed mRNA in the presence of chemical substance/The level of expressed mRNA in the absence of chemical substance", "setting": "yeast gene YMR203W", "value": 1.4}, {"measurement": "The level of expressed mRNA in the presence of chemical substance/The level of expressed mRNA in the absence of chemical substance", "setting": "yeast gene YNL055C", "value": 2.0}, {"measurement": "The level of expressed mRNA in the presence of chemical substance/The level of expressed mRNA in the absence of chemical substance", "setting": "yeast gene YNL259C", "value": 1.2}, {"measurement": "The level of expressed mRNA in the presence of chemical substance/The level of expressed mRNA in the absence of chemical substance", "setting": "yeast gene YNR072W", "value": 0.7}, {"measurement": "The level of expressed mRNA in the presence of chemical substance/The level of expressed mRNA in the absence of chemical substance", "setting": "yeast gene YOL119C", "value": 2.3}, {"measurement": "The level of expressed mRNA in the presence of chemical substance/The level of expressed mRNA in the absence of chemical substance", "setting": "yeast gene YOL156W", "value": 1.1}, {"measurement": "The level of expressed mRNA in the presence of chemical substance/The level of expressed mRNA in the absence of chemical substance", "setting": "yeast gene YOL163W", "value": 3.3}, {"measurement": "The level of expressed mRNA in the presence of chemical substance/The level of expressed mRNA in the absence of chemical substance", "setting": "yeast gene YOR035C", "value": 1.2}, {"measurement": "The level of expressed mRNA in the presence of chemical substance/The level of expressed mRNA in the absence of chemical substance", "setting": "yeast gene YOR130C", "value": 1.0}, {"measurement": "The level of expressed mRNA in the presence of chemical substance/The level of expressed mRNA in the absence of chemical substance", "setting": "yeast gene YOR153W", "value": 1.1}, {"measurement": "The level of expressed mRNA in the presence of chemical substance/The level of expressed mRNA in the absence of chemical substance", "setting": "yeast gene YOR273C", "value": 1.0}, {"measurement": "The level of expressed mRNA in the presence of chemical substance/The level of expressed mRNA in the absence of chemical substance", "setting": "yeast gene YOR316C", "value": 1.5}, {"measurement": "The level of expressed mRNA in the presence of chemical substance/The level of expressed mRNA in the absence of chemical substance", "setting": "yeast gene YOR328W", "value": 1.0}, {"measurement": "The level of expressed mRNA in the presence of chemical substance/The level of expressed mRNA in the absence of chemical substance", "setting": "yeast gene YOR332W", "value": 1.0}, {"measurement": "The level of expressed mRNA in the presence of chemical substance/The level of expressed mRNA in the absence of chemical substance", "setting": "yeast gene YOR348C", "value": 2.0}, {"measurement": "The level of expressed mRNA in the presence of chemical substance/The level of expressed mRNA in the absence of chemical substance", "setting": "yeast gene YPL036W", "value": 0.9}, {"measurement": "The level of expressed mRNA in the presence of chemical substance/The level of expressed mRNA in the absence of chemical substance", "setting": "yeast gene YPL134C", "value": 1.6}, {"measurement": "The level of expressed mRNA in the presence of chemical substance/The level of expressed mRNA in the absence of chemical substance", "setting": "yeast gene YPL271W", "value": 1.2}, {"measurement": "The level of expressed mRNA in the presence of chemical substance/The level of expressed mRNA in the absence of chemical substance", "setting": "yeast gene YPR192W", "value": 5.0}, {"measurement": "The level of expressed mRNA in the presence of chemical substance/The level of expressed mRNA in the absence of chemical substance", "setting": "yeast gene YPR194C", "value": 2.9}]}
